{
  "source": "patent US20050118287A1",
  "about": "“Use of a vanilloid as an anti-snoring element” (LMD, priority 2002, published 2005)",
  "system": "snoring",
  "experiment": "Activity of the shogaol on snoring in a panel of men and women",
  "type": "in vivo",
  "conditions": "daily doses corresponding to 20 mg of shogaol",
  "description": "Daily doses corresponding to 20 mg of shogaol taken in the form of an extract according to example 1 or 2 or of pure shogaol according to example 3 were administered to a panel of men and women. The effects manifest themselves after 48 hours of treatment and persist for 48 hours after stopping the latter. […] Without being bound by theory, it appears that the effect of this molecule and of other vanilloids should be linked to their involvement in emission by certain nociceptive neurons of a neurotransmitter, substance P.",
  "data": [
    {"substance": "shogaol", "values": [
      {"measurement": "persistence of the effects after stopping treatment", "result": 48, "unit": "h"},
      {"measurement": "time of treatment after which the effects manifest themselves", "result": 48, "unit": "h"},
      {"measurement": "effect on snoring in the user", "setting": "taken as extract according to example 1 or 2 or pure shogaol according to example 3", "result": "considerably reduces snoring"}
    ]}
  ]
}
